Measurements as given in publication PMC3933693, “Novel Inhibitors of Mitochondrial sn-Glycerol 3-phosphate Dehydrogenase” (PLoS ONE, 2014).

Tests used:
[1] = system: flavin mononucleotide site of complex I (site IF) plus matrix NAD-linked dehydrogenases (site IF/DH); assay: Site-specific H2O2 production from site IF/DH in skeletal muscle mitochondria; format: biochemical, rat; conditions: primary screen, ∼2.5 µM, average of duplicates
Outline: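 Isolated rat skeletal muscle mitochondria; H2O2 read by Amplex UltraRed with added SOD and HRP. Site IF/DH: 5 mM glutamate, 5 mM malate, 4 µM rotenone. Site IIF: palmitoylcarnitine or succinate with rotenone/antimycin A/myxothiazol. Site IIIQo: succinate, rotenone, antimycin A. Screen at 2.5 µM, normalised as % change from DMSO.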

[2] = system: skeletal muscle mitochondria; assay: Mitochondrial membrane potential (ΔΨm, TMRM) powered by glutamate plus malate; format: biochemical, rat
[3] = system: skeletal muscle mitochondria; assay: Mitochondrial membrane potential (ΔΨm, TMRM) powered by succinate; format: biochemical, rat
Description: Mitochondrial membrane potential (ΔΨm) was estimated fluorimetrically as described previously on the Varian fluorimeter, except the potentiometric dye TMRM was used in quench-mode in place of safranine O [34]. […] The effect of putative small-molecule inhibitors was normalized as the % change in fluorescence between vehicle treatment and complete depolarization by the uncoupler carbonyl cyanide-4-(trifluoromethoxy)phenylhydrazone (FCCP, 2 µM) added at the end of each run. When indicated, the K^+/H^+ exchanger nigericin (80 ng ⋅ ml^−1) was added to collapse the pH gradient across the mitochondrial inner membrane (ΔpH) and maximize ΔΨm.
The assay buffer for both H2O2 and ΔΨm measurements was 120 mM KCl, 5 mM HEPES, 1 mM EGTA, 0.3% (w/v) BSA without or with 250 nM free calcium at pH 7.0. All assays were performed with stirring at 37°C.
Structure/activity analysis was performed on 18 structural analogs of two structurally-related hits from the primary screen (iGP-1 and iGP-2). These 20 compounds were tested in duplicate at 0.08–80 µM (0.1% DMSO final) in microplate format for effects on site-specific H2O2 production as described above. Additionally, four microplate assays for ΔΨm were run in parallel to the H2O2 assays. These assays were as described under “Measurement of mitochondrial H2O2 production and membrane potential” except that each substrate condition was assayed in a separate microplate. […] Plates were incubated in the dark at room temperature for 30–40 min (H2O2) or 10–15 min (ΔΨm) after the addition of substrate, and endpoint fluorescence was measured on the Victor plate reader. Endpoints were chosen for the H2O2 assays to provide good signal-to-noise ratios and linear rates of change without the indicator dye limiting the reaction. Endpoints for the ΔΨm assays were determined in pilot experiments as the times for TMRM accumulation to reach a steady state. […] Endpoint fluorescence values were normalized as described in the previous section with wells containing FCCP serving as positive controls for the ΔΨm assays.

[4] = biological target: T1, purified rabbit muscle cGPDH (Oryctolagus cuniculus, UniProt P08507); assay: cGPDH enzymatic activity (NADH oxidation in the presence of DHAP); format: biochemical; conditions: Fig. 5
T1 construct: Activity of purified rabbit muscle cGPDH was measured as described by the manufacturer; purchased; host or cells: rabbit muscle
T1 sequence (P08507 1-349): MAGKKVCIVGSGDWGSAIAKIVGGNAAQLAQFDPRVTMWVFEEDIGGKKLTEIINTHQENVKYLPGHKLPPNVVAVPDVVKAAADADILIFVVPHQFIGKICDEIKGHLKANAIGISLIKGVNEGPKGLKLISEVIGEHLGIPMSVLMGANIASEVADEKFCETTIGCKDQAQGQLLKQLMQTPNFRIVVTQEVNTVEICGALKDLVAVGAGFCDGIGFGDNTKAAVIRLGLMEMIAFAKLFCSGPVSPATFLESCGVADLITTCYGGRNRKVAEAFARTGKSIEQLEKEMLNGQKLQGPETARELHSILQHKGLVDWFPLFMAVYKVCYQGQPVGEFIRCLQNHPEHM
Description: The effects of small-molecule inhibitors on cGPDH and mGPDH enzymatic activity were tested according to established procedures. Activity of purified rabbit muscle cGPDH was measured as described by the manufacturer as the rate of oxidation of NADH in the presence of DHAP on the Varian fluorimeter (λex = 365 nm, λem = 450 nm). Activity of cGPDH in frozen-thawed synaptosomes was measured at 37°C in a BMG Labtech PHERAstar Plus microplate reader as the linear rate of change in NADH absorbance (λ = 340 nm) specific to the addition of 2.5 mM DHAP and insensitive to 4 µM rotenone. Rates were converted to nmol NADH using an extinction coefficient of 6.22 mM^−1 ⋅ cm^−1 and a calculated pathlength of 0.6 cm.

effect on the soluble form of GPDH (cGPDH) activity [4]: did not inhibit
SMILES: O=C(O)CCC(=O)Nc1ccc(-c2nc3ccccc3[nH]2)cc1 [iGP-1]
IF/DH (% change from DMSO) [1]: 4.1%
ΔΨm with Glu + Mal + Nig (% change at 80 μM) ([2]; 80 μM, 5 mM glutamate, 5 mM malate, with nigericin): 4%
ΔΨm with Glu + Mal (% change at 80 μM) ([2]; 80 μM, 5 mM glutamate, 5 mM malate, without nigericin): 15%
ΔΨm (% change from DMSO) ([2]; primary screen, ∼2.5 µM, average of duplicates, glutamate and malate): 0.154%
effect on ΔΨm powered by glutamate and malate ([2]; without or with nigericin): no effect
effect on ΔΨm powered by 0.5 mM succinate ([3]; 80 µM, 0.5 mM succinate): significantly decreased
effect on ΔΨm powered by 5 mM succinate ([3]; 5 mM succinate): no effect
